Data reported in ChEMBL document CHEMBL3421542, “Pure Diastereomers of a Tranylcypromine-Based LSD1 Inhibitor: Enzyme Selectivity and In-Cell Studies” (ACS Med Chem Lett, 2015).
pIC50: −log10 of the molar value.

Tests used:
[1] = Induction of cell differentiation in human NB4 cells assessed as upregulation of CD11B expression; format: functional, cell-based; settings: NB-4
[2] = Inhibition of colony formation in mouse acute promyelocytic leukemic cell at 0.25 uM after 7 days by colony forming unit assay; format: functional; settings: 168 h
[3] = Induction of cell differentiation in mouse acute promyelocytic leukemic cells; format: functional
[4] = target: T1, MAO-B (amine oxidase [flavin-containing] B) (Homo sapiens, UniProt P27338); test: Inhibition of human recombinant MAOB expressed in Pichia pastoris at 100 uM incubated for 15 mins prior to substrate addition measured after 30 mins by luminescence assay
T1 sequence (P27338 whole entry): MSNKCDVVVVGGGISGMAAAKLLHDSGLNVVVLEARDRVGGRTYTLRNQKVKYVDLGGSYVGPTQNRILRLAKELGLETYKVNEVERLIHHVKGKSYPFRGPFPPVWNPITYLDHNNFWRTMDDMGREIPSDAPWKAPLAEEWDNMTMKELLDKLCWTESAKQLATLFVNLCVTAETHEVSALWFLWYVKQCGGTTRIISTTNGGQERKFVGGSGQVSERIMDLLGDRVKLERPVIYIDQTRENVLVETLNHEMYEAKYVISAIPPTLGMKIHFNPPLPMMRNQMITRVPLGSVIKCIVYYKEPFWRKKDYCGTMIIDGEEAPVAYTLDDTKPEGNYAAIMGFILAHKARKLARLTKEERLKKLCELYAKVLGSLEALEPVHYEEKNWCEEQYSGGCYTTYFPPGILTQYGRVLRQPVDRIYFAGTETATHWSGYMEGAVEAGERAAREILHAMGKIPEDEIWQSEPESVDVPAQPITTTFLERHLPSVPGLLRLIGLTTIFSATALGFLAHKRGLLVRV

[5] = target: T2, Amine oxidase [flavin-containing] B (Homo sapiens, UniProt P27338); test: Inhibition of human recombinant MAOB expressed in Pichia pastoris incubated for 15 mins prior to substrate addition measured after 30 mins by luminescence assay
T2 sequence (P27338 whole entry): T1 sequence (P27338 whole entry)

| SMILES | Activity [1] [%] | inhibition at 0.25 µM [2] [%] | Activity [3] [%] | inhibition at 0.5 h, 100 µM [4] [%] | pIC50 [5] |
| --- | --- | --- | --- | --- | --- |
| Cl.NC1CC1c1ccc(NC(=O)C(Cc2ccccc2)NC(=O)OCc2ccccc2)cc1 (mixture of isomers) | 77.9 | 36.8 | 77.9 | 40 | – |
| N[C@H]1C[C@@H]1c1ccc(NC(=O)[C@H](Cc2ccccc2)NC(=O)OCc2ccccc2)cc1 | – | – | – | – | 4.37 |
| N[C@@H]1C[C@H]1c1ccc(NC(=O)[C@H](Cc2ccccc2)NC(=O)OCc2ccccc2)cc1 | – | 59.2 | – | – | 4.49 |
| N[C@@H]1C[C@H]1c1ccc(NC(=O)[C@@H](Cc2ccccc2)NC(=O)OCc2ccccc2)cc1 | – | 59.6 | – | 33 | – |
| N[C@H]1C[C@@H]1c1ccc(NC(=O)[C@@H](Cc2ccccc2)NC(=O)OCc2ccccc2)cc1 | – | – | – | 14 | – |
